Data published in PubChem BioAssay (NCI).
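How tested: cells in 96-well plates exposed to compound for 48 hours at five concentrations. Definition used: TGI = concentration required for complete inhibition of growth.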

Columns and labels:
Assay in all cases: inhibition of tumour cell growth, NCI panel, 48 h
SF-268 CNS = tested on: SF-268 CNS
HT29 colon = tested on: HT29 colon
A498 renal = tested on: A498 renal
NCI-H460 lung = tested on: NCI-H460 lung
HCT-116 colon = tested on: HCT-116 colon
BT-549 breast = tested on: BT-549 breast
RXF 393 renal = tested on: RXF 393 renal
UACC-257 melanoma = tested on: UACC-257 melanoma
MDA-N = tested on: MDA-N
HS 578T breast = tested on: HS 578T breast
PC-3 prostate = tested on: PC-3 prostate
MDA-MB-231 breast = tested on: MDA-MB-231 breast
MDA-MB-435 = tested on: MDA-MB-435
MOLT-4 leukemia = tested on: MOLT-4 leukemia
UACC-62 melanoma = tested on: UACC-62 melanoma
HCT-15 colon = tested on: HCT-15 colon
CCRF-CEM leukemia = tested on: CCRF-CEM leukemia
HL-60(TB) leukemia = tested on: HL-60(TB) leukemia
NCI-H522 lung = tested on: NCI-H522 lung
K-562 leukemia = tested on: K-562 leukemia
A549 NSCLC = tested on: A549 NSCLC
IGROV1 ovarian = tested on: IGROV1 ovarian
SN12C renal = tested on: SN12C renal
EKVX NSCLC = tested on: EKVX NSCLC
SW-620 colon = tested on: SW-620 colon
SNB-75 CNS = tested on: SNB-75 CNS
RPMI-8226 leukemia = tested on: RPMI-8226 leukemia
SR leukemia = tested on: SR leukemia
U251 CNS = tested on: U251 CNS
NCI-H226 lung = tested on: NCI-H226 lung
SNB-19 CNS = tested on: SNB-19 CNS
TK-10 renal = tested on: TK-10 renal
KM12 colon = tested on: KM12 colon
786-0 renal = tested on: 786-0 renal
NCI/ADR-RES ovarian = tested on: NCI/ADR-RES ovarian
LOX IMVI melanoma = tested on: LOX IMVI melanoma
HOP-92 NSCLC = tested on: HOP-92 NSCLC
MCF7 breast = tested on: MCF7 breast
SF-539 CNS = tested on: SF-539 CNS
HOP-62 NSCLC = tested on: HOP-62 NSCLC
NCI-H23 lung = tested on: NCI-H23 lung
M14 melanoma = tested on: M14 melanoma
DU-145 prostate = tested on: DU-145 prostate
OVCAR-3 ovarian = tested on: OVCAR-3 ovarian
CAKI-1 renal = tested on: CAKI-1 renal
OVCAR-4 ovarian = tested on: OVCAR-4 ovarian
UO-31 renal = tested on: UO-31 renal
MALME-3M melanoma = tested on: MALME-3M melanoma
SF-295 CNS = tested on: SF-295 CNS
OVCAR-8 ovarian = tested on: OVCAR-8 ovarian
COLO 205 colon = tested on: COLO 205 colon
SK-MEL-28 melanoma = tested on: SK-MEL-28 melanoma
OVCAR-5 ovarian = tested on: OVCAR-5 ovarian
SK-OV-3 ovarian = tested on: SK-OV-3 ovarian
HCC-2998 colon = tested on: HCC-2998 colon
SK-MEL-2 melanoma = tested on: SK-MEL-2 melanoma
ACHN renal = tested on: ACHN renal
SK-MEL-5 melanoma = tested on: SK-MEL-5 melanoma

`COc1ccc(-c2cc(O)c3nc4ccccc4n3c2)cc1` showed a TGI (SF-268 CNS) greater than 100 µM, a TGI (HT29 colon) greater than 100 µM and a TGI (A498 renal) greater than 100 µM. It also gave a TGI (NCI-H460 lung) greater than 100 µM, a TGI (HCT-116 colon) greater than 100 µM and a TGI (BT-549 breast) greater than 100 µM. For the same molecule, the TGI (RXF 393 renal) was greater than 100 µM, the TGI (UACC-257 melanoma) was greater than 100 µM and the TGI (MDA-N) was greater than 100 µM. The TGI (HS 578T breast) was greater than 100 µM, the TGI (PC-3 prostate) was greater than 100 µM and the TGI (MDA-MB-231 breast) was greater than 100 µM. It also gave a TGI (MDA-MB-435) greater than 100 µM, a TGI (MOLT-4 leukemia) greater than 100 µM and a TGI (UACC-62 melanoma) greater than 100 µM. It also gave a TGI (HCT-15 colon) greater than 100 µM, a TGI (CCRF-CEM leukemia) greater than 100 µM and a TGI (HL-60(TB) leukemia) greater than 100 µM. For the same molecule, the TGI (NCI-H522 lung) was greater than 100 µM, the TGI (K-562 leukemia) was greater than 100 µM and the TGI (A549 NSCLC) was greater than 100 µM. The TGI (IGROV1 ovarian) was greater than 100 µM, the TGI (SN12C renal) was greater than 100 µM and the TGI (EKVX NSCLC) was greater than 100 µM. It also gave a TGI (SW-620 colon) greater than 100 µM, a TGI (SNB-75 CNS) greater than 100 µM and a TGI (RPMI-8226 leukemia) greater than 100 µM. For the same molecule, the TGI (SR leukemia) was greater than 100 µM, the TGI (U251 CNS) was greater than 100 µM and the TGI (NCI-H226 lung) was greater than 100 µM. It also gave a TGI (SNB-19 CNS) greater than 100 µM, a TGI (TK-10 renal) greater than 100 µM and a TGI (KM12 colon) greater than 100 µM. For the same molecule, the TGI (786-0 renal) was greater than 100 µM, the TGI (NCI/ADR-RES ovarian) was greater than 100 µM and the TGI (LOX IMVI melanoma) was greater than 100 µM. The TGI (HOP-92 NSCLC) was greater than 100 µM, the TGI (MCF7 breast) was greater than 100 µM and the TGI (SF-539 CNS) was greater than 100 µM. For the same molecule, the TGI (HOP-62 NSCLC) was greater than 100 µM, the TGI (NCI-H23 lung) was greater than 100 µM and the TGI (M14 melanoma) was greater than 100 µM. The TGI (DU-145 prostate) was greater than 100 µM, the TGI (OVCAR-3 ovarian) was greater than 100 µM and the TGI (CAKI-1 renal) was greater than 100 µM. The TGI (OVCAR-4 ovarian) was greater than 100 µM, the TGI (UO-31 renal) was greater than 100 µM and the TGI (MALME-3M melanoma) was greater than 100 µM. For the same molecule, the TGI (SF-295 CNS) was greater than 100 µM, the TGI (OVCAR-8 ovarian) was greater than 100 µM and the TGI (COLO 205 colon) was greater than 100 µM. It also gave a TGI (SK-MEL-28 melanoma) greater than 100 µM.
`COc1ccc(-c2c(C#N)c(-c3ccc(C)cc3)n(NS(=O)(=O)c3ccc(C)cc3)c(=O)c2C#N)cc1` was tested, and the TGI (SF-268 CNS) was greater than 100 µM, the TGI (HT29 colon) was greater than 100 µM and the TGI (A498 renal) was greater than 100 µM. It also gave a TGI (NCI-H460 lung) greater than 100 µM, a TGI (HCT-116 colon) greater than 100 µM and a TGI (BT-549 breast) greater than 100 µM. It also gave a TGI (RXF 393 renal) greater than 100 µM, a TGI (UACC-257 melanoma) greater than 100 µM and a TGI (OVCAR-5 ovarian) greater than 100 µM. The TGI (MDA-N) was greater than 100 µM, the TGI (HS 578T breast) was 75.1 µM and the TGI (PC-3 prostate) was greater than 100 µM. For the same molecule, the TGI (MDA-MB-231 breast) was greater than 100 µM, the TGI (MDA-MB-435) was greater than 100 µM and the TGI (MOLT-4 leukemia) was 57.4 µM. The TGI (UACC-62 melanoma) was greater than 100 µM, the TGI (HCT-15 colon) was greater than 100 µM and the TGI (SK-OV-3 ovarian) was greater than 100 µM. It also gave a TGI (CCRF-CEM leukemia) of 81.6 µM, a TGI (NCI-H522 lung) greater than 100 µM and a TGI (K-562 leukemia) greater than 100 µM. It also gave a TGI (A549 NSCLC) greater than 100 µM, a TGI (IGROV1 ovarian) greater than 100 µM and a TGI (SN12C renal) greater than 100 µM. It also gave a TGI (EKVX NSCLC) greater than 100 µM, a TGI (SW-620 colon) greater than 100 µM and a TGI (SNB-75 CNS) greater than 100 µM. It also gave a TGI (RPMI-8226 leukemia) of 46.3 µM, a TGI (U251 CNS) greater than 100 µM and a TGI (NCI-H226 lung) greater than 100 µM. The TGI (SNB-19 CNS) was greater than 100 µM, the TGI (TK-10 renal) was greater than 100 µM and the TGI (KM12 colon) was greater than 100 µM. For the same molecule, the TGI (786-0 renal) was greater than 100 µM, the TGI (NCI/ADR-RES ovarian) was greater than 100 µM and the TGI (LOX IMVI melanoma) was greater than 100 µM. It also gave a TGI (HCC-2998 colon) greater than 100 µM, a TGI (HOP-92 NSCLC) greater than 100 µM and a TGI (MCF7 breast) greater than 100 µM. For the same molecule, the TGI (SF-539 CNS) was greater than 100 µM, the TGI (HOP-62 NSCLC) was greater than 100 µM and the TGI (M14 melanoma) was greater than 100 µM. It also gave a TGI (SK-MEL-2 melanoma) greater than 100 µM, a TGI (CAKI-1 renal) greater than 100 µM and a TGI (OVCAR-4 ovarian) greater than 100 µM. The TGI (MALME-3M melanoma) was greater than 100 µM, the TGI (ACHN renal) was greater than 100 µM and the TGI (SK-MEL-5 melanoma) was 58.3 µM. For the same molecule, the TGI (SF-295 CNS) was greater than 100 µM, the TGI (OVCAR-8 ovarian) was greater than 100 µM and the TGI (COLO 205 colon) was greater than 100 µM. For the same molecule, the TGI (SK-MEL-28 melanoma) was greater than 100 µM.
